Entries after “also recorded” stand apart in the source; their conditions may differ.
Assays:
BSA = biological target: T1, BSA (Bos taurus, UniProt P02769); test: Native PAGE of BSA with iridium complexes; type: binding, bovine; settings: BSA 3 µM, CD/CP = 10, overnight
T1 construct: purchased Merck Life Science S.L.U., Madrid, Spain
Method: Native protein electrophoresis. The interaction between BSA and iridium complexes was studied using native polyacrylamide gel electrophoresis (PAGE). The BSA concentration was 3 µM and the CD/CP ratio was 10. The samples of BSA/Ir-complexes were incubated overnight. The samples were mixed with a sample buffer (glycerol and bromophenol) and loaded into a 10% polyacrylamide gel for PAGE analysis (BioRad electrophoresis accessories). The gel was run at 80 V for 3 h, and then it was stained and destained before the gel was imaged using BioRad Gel Doc XR+ molecular imager. The staining solution contains 45% MeOH, 10% glacial acetic acid, 45% H2O and 0.1% brilliant blue, whereas the destaining solution consists of 20% MeOH, 10% glacial acetic acid and 70% H2O.

Qualitative solubility = type: physicochemical; settings: 1-2 mg, solvent up to 1 mL
Method: Solubility. The solubility of the complexes was qualitatively assessed. Different solvents were added drop-by-drop while shaking to a small amount of complex (around 1–2 mg) in a vial until the solvent added exceeded 1 mL. Afterwards, it was checked if the solid was or not completely dissolved and/or if the solution got coloured.

Calf thymus DNA [1] = test: Kinetics of covalent binding to DNA (UV-vis, NMR); settings: for Covalent binding to DNA: UV-Vis and NMR; for kc x 103 (rate constant of covalent binding to DNA): values are kc x 103, CP/CD = 20
Method: Materials. The iridium chloride salt (IrCl3·nH2O) was purchased from Johnson Mattey. The ligands 2-phenylbenzimidazole, 2-(2′-pyridylbenzimidazole), 2-(2′-aminophenylbenzimidazole), 2-(2′-aminophenylbenzothiazole), 2-(2′-hydroxyphenylbenzimidazole) and 2-(2′-hydroxyphenylbenzothiazole) were purchased from Sigma-Aldrich. The ligands 2-phenyl-N-methyl-benzimidazole and 2-(2′-pyridyl)l-N-methyl-benzimidazole were prepared according to slightly modified reported protocols. Deuterated solvents were obtained from SDS and Euriso-top. Unless otherwise specified, all the biological reagents were purchased from Merck Life Science S.L.U., Madrid, Spain. Calf thymus DNA provided as a highly polymerized lyophilized sodium salt was dissolved into doubly-deionized water and sonicated with an MSE-Sonyprep sonicator to reduce the polymer length at approximately 1000 base-pairs. The molar DNA concentration in base pairs, ε (260 nm) = 13,200 M^−1 cm^−1 [49], will be expressed as CP. BSA was supplied as crystallized and lyophilized powder (≥98%, agarose gel electrophoresis and ≤0.005% fatty acids); the BSA concentration of the stock solutions was spectrophotometrically determined as ε (278 nm) = 45,000 M^−1 cm^−1. All aqueous solutions were prepared with MilliQ-grade water using a Direct-Q8UV system from Millipore (Millipore Ibérica S.A., Madrid, Spain). All solvents were of analytical grade. The chemical studies were carried out in aqueous solutions at 25 °C, I = 2.5 mM sodium cacodylate (NaCaC) and pH between 6.0 and 7.1 unless other conditions are stated. All buffers with the biological components were of biological grade and used as received.
The UV-vis measurements were performed with a Hewlett-Packard 8453A (Agilent Technologies, Palo Alto, CA, USA) photodiode array spectrophotometer with a Peltier temperature control system. Titrations were carried out at 25 °C by adding increasing amounts of DNA solution to the iridium complex solution. The pKa values were measured by analysing the absorbance change of iridium complex solutions recorded at different pH values. The melting experiments were carried out using a DNA solution varying the CIr-complex/CDNA (CD/CP) ratio from 0 to 1, keeping CP constant and recording the absorbance spectra while heating from 25 to 90 °C at 0.3 °C/min.
The slow kinetic measurements were performed with the previous spectrophotometer while the fast kinetic measurements were performed in a stopped flow Bio-Logic SFM-300 spectrophotometer with an absorbance detection system and dead time below 3 ms. The kinetic curves, obtained averaging out at least five shots, were analysed with the Jandel (AISN software, Mapleton, OR) fitting package.
2 - Interaction wit h DNA
Aquo- complexes bind DNA(N7) more easily than their chlorido analogous[1],[2].
complexes were incubated overnight until the aquation process i s co m ple t ed. Water-insoluble
compounds were firstly dissolved in DMSO and then diluted in water.
From the fitting of absorbance-time graphs (Figure S8 ) to a biexponential analysis, two rate
constants were obtained. The fast reaction could be related to covalent binding, being k c t he
to DNA/Ir-complex rearrangements, so it was disregarded.
0. 174 3 [ N, NH] 4 [ N, NMe ]
Figure S13. Biexponential kinetic curves of DNA with A) 3[N,NH] CD = 1.0 3×1 0-5 M, B) 4[N,NMe] CD =
M, F) 8[CO,S] C D = 9.4 0×1 0- 6 M. CP/CD = 20.
Table S10. Rate constants for the covalent binding between the complexes and DNA.
The formation of covalent DNA/Ir-complex product (PD), can be represented according to the
where P represents the polynucleotide DNA and D the Iridium -metal complexes. Henceforth, CD
and CP stand for the analytical D and P concentrations, respectively.
Nevertheless, we observed that for each complex, the kc values remained essentially constant
with the increment of CP (Figure S9 ), proving that the reaction is monomolecular. Therefore, PD […]

Calf thymus DNA [2] = test: DNA melting temperature (DSC); type: binding; settings: as a function of CD/CP, overnight incubation
Method: Differential scanning calorimetry (DSC) studies were performed in a nano DSC (TA Instruments, Newcastle, USA) to determine the melting temperature of DNA in the absence and in the presence of different amount of the Ir(III) complexes. Cells were 300 μL platinum capillary tubes. Measurements were performed by heating the dye/polynucleotide system from 20 to 90 °C, at 1 °C/min scan rate and 3 atm pressure. To reduce the formation of bubbles upon heating to a minimum, the reference and the sample solutions were previously degassed for 30 min in a degassing station (TA Instruments, Newcastle, USA). The thermograms recorded were analysed with the NanoAnalyze 2.0 software. The buffer–buffer baseline was run at least five heating/cooling cycles until the heating was reproducible, and then, it was subtracted from the sample data.

T1 sequence (P02769 25-607): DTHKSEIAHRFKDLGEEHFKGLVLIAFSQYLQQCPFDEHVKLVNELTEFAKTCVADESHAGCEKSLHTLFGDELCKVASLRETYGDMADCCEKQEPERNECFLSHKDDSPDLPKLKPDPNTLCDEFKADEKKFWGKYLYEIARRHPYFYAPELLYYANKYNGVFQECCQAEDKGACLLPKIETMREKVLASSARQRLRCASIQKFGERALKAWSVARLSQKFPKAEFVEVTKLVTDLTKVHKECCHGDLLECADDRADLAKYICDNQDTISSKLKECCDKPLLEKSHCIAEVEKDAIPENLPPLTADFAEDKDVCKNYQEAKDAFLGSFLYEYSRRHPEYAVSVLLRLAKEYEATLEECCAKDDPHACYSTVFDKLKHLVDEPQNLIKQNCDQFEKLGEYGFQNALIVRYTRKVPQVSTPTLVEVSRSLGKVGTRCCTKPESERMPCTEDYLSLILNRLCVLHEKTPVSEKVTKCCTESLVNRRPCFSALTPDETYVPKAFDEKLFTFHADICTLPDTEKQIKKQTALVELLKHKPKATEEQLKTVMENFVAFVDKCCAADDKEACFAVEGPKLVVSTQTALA

SMILES | Interaction with BSA (BSA) | Covalent binding to DNA (Calf thymus DNA [1]) | kc x 103 (rate constant of covalent binding to DNA) (Calf thymus DNA [1]) [s-1] | ∆Tm of DNA (Calf thymus DNA [2]) | other results
Cc1c(C)c(C)[c-](C)c1C.Cn1c2[n+](c3ccccc31)[Ir]([Cl])[n+]1ccccc1-2.[Cl-] [4[N,NMe], [(η^5-Cp*)IrCl(κ^2-N,N-pyMebim)]Cl] | interactions | able to covalently bind DNA | 16 ± 1 | -14 oC | Solubility in water (Qualitative solubility; listed as 4[N,NMe-Cl]): soluble in water; Solubility in water (Qualitative solubility; listed as 4[N,NMe-Cl]+): water-soluble
Cc1c(C)c(C)[c-](C)c1C.[Cl][Ir]1[O]c2ccccc2-c2sc3ccccc3[n+]21 [8[CO,S], [(η^5-Cp*)IrCl(κ^2-O,N-hpbtz)]] | interacts with BSA | able to covalently bind DNA | 6.0 ± 0.2 | 0 oC | Solubility in water (Qualitative solubility; listed as 8[CO,S-Cl]): insoluble in water; also recorded: soluble in DMSO, but not in water
Cc1c(C)c(C)[c-](C)c1C.[Cl][Ir]1[O]c2ccccc2-c2[nH]c3ccccc3[n+]21 [7[CO,NH], [(η^5-Cp*)IrCl(κ^2-O,N-hpbim)]] | interactions | able to covalently bind DNA | 3.7 ± 0.1 | 0 oC | Solubility in water (Qualitative solubility; listed as 7[CO,NH-Cl]): insoluble in water; also recorded: soluble in DMSO, but not in water
Cc1c(C)c(C)[c-](C)c1C.Cn1c2[n+](c3ccccc31)[Ir]([Cl])[c]1ccccc1-2 [2[C,NMe], [(η^5-Cp*)IrCl(κ^2-N,C-NMepbim)]] | do not interact with the protein | ruled out | – | 0 oC | Solubility in water (Qualitative solubility; listed as 2[C,NMe-Cl]): insoluble in water; also recorded: soluble in DMSO, but not in water
Cc1c(C)c(C)[c-](C)c1C.[Cl][Ir]1[c]2ccccc2-c2[nH]c3ccccc3[n+]21 [1[C,NH], [(η^5-Cp*)IrCl(κ^2-N,C-pbim)]] | do not interact with the protein | ruled out | – | 0 oC | Solubility in water (Qualitative solubility; listed as 1[C,NH-Cl]): insoluble in water; also recorded: soluble in DMSO, but not in water
Cc1c(C)c(C)[c-](C)c1C.[Cl-].[Cl][Ir]1[NH2+]c2ccccc2-c2sc3ccccc3[n+]21 [6[CNH2,S], [(η^5-Cp*)IrCl(κ^2-N,N-apbtz)]Cl] | do not interact with the protein | able to covalently bind DNA | 6.4 ± 0.2 | +21 oC | Solubility in water (Qualitative solubility): water-soluble
Cc1c(C)c(C)[c-](C)c1C.[Cl-].[Cl][Ir]1[n+]2ccccc2-c2[nH]c3ccccc3[n+]21 [3[N,NH], [(η^5-Cp*)IrCl(κ^2-N,N-pybim)]Cl] | interactions | able to covalently bind DNA | 20 ± 2 | -35 oC | Solubility in water (Qualitative solubility; listed as 3[N,NH-Cl]): soluble in water; Solubility in water (Qualitative solubility; listed as 3[N,NH-Cl]+): water-soluble
Cc1c(C)c(C)[c-](C)c1C.[Cl-].[Cl][Ir]1[NH2+]c2ccccc2-c2[nH]c3ccccc3[n+]21 [5[CNH2,NH], [(η^5-Cp*)IrCl(κ^2-N,N-apbim)]Cl] | do not interact with the protein | able to covalently bind DNA | 3.9 ± 0.1 | +5 oC | Solubility in water (Qualitative solubility; listed as 5[CNH2,NH-Cl]): soluble in water; Solubility in water (Qualitative solubility; listed as 5[CNH2,NH-Cl]+): water-soluble

Source: article PMC9818021, “Targets, Mechanisms and Cytotoxicity of Half-Sandwich Ir(III) Complexes Are Modulated by Structural Modifications on the Benzazole Ancillary Ligand” (Cancers, 2022)
